This note sets out measurements from patent US20240174618A1, “SUBSTITUTED (2-HETEROARYLOXYPHENYL)SULFONATES, SALTS THEREOF AND THEIR USE AS HERBICIDAL AGENTS” (Bayer Aktiengesellschaft, priority 2021, published 2024).

What all share (format): in vivo
The subject of data set [1] is Oryza sativa (ORYSA). Description: D. Pre-emergence effect on useful plants, ORYSA. Conditions: useful plant, application rate 80 g/ha. The text has this: (§1) Seeds of monocotyledonous and dicotyledonous weed plants and crop plants were placed in plastic or organic planting pots and covered with soil. The compounds of the invention, formulated in the form of wettable powders (WP) or as emulsion concentrates (EC), were then applied to the surface of the covering soil as aqueous suspension or emulsion with addition of 0.5% additive at a water application rate equivalent to 600 l/ha (converted). After the treatment, the pots were placed in a greenhouse and kept under good growth conditions for the test plants. After about 3 weeks, the efficacy of the preparations was scored visually in comparison with untreated controls as percentages. For example, • 100% efficacy=plants have died, • 0% efficacy=like untreated control plants.
(§2) Tables D1a to D5b below show the effects of selected compounds of the general formula (I) according to table 1 on various useful plants at an application rate corresponding to 320 g/ha or less, which were obtained by the experimental procedure mentioned above.

The test system of data set [2] is Glycine max (GLXMA). As to the kind of experiment: D. Pre-emergence effect on useful plants, GLXMA. Conditions: useful plant.
Source text: as §1, §2

Data set [3] concerns Oryza sativa (ORYSA). Description: F. Post-emergence effect on useful plants, ORYSA. The note with it: useful plant, application rate 80 g/ha. As for the experimental part:
(§3) Seeds of monocotyledonous and dicotyledonous weeds and crop plants were placed in sandy loam in plastic or organic planting pots, covered with soil and cultivated in a greenhouse under controlled growth conditions. 2 to 3 weeks after sowing, the test plants were treated at the one-leaf stage. The compounds of the invention, formulated in the form of wettable powders (WP) or as emulsion concentrates (EC), were then sprayed onto the green parts of the plants as aqueous suspension or emulsion with addition of 0.5% additive at a water application rate of 600 l/ha (converted). After the test plants had been kept in the greenhouse under optimum growth conditions for about 3 weeks, the activity of the preparations was rated visually in comparison to untreated controls.
(§4) For example, • 100% efficacy=plants have died, • 0% action=like untreated control plants.
(§5) Tables F1a to F4 below show the effects of selected compounds of the general formula (I) according to table 1 on various useful plants at an application rate corresponding to 320 g/ha or less, which were obtained by the experimental procedure mentioned above.

Data set [4] concerns Zea mays (ZEAMX). Description: F. Post-emergence effect on useful plants, ZEAMX. The note with it: useful plant. The method in brief: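 Visual efficacy rating versus untreated plants, from 0% (no effect) to 100% (plants died), made about 3 weeks after post-emergence treatment. Formulated compounds (WP or EC, 0.5% additive, 600 l/ha water) were sprayed onto greenhouse-grown crops at the one-leaf stage, 2-3 weeks after sowing.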

The test system of data set [5] is Glycine max (GLXMA). Description: F. Post-emergence effect on useful plants, GLXMA. The note with it: useful plant, application rate 80 g/ha. On the procedure: as §3, §4, §5

As to `O=S(=O)(CCCCl)Oc1cccc(F)c1Oc1ncc(Cl)cn1` [Example I-13], the “Pre-emergence efficacy against ORYSA in %” value in data set [1] came out at 10%. The “Pre-emergence efficacy against GLXMA in %” value in data set [2] (application rate 80 g/ha) stood at 10%; in data set [2] (application rate 320 g/ha), 20%. Further, the “Post-emergence efficacy against ORYSA in %” value in data set [3] was 10%. In addition, the “Post-emergence efficacy against ZEAMX in %” value in data set [4] (application rate 80 g/ha) and in data set [4] (application rate 320 g/ha) was 20% throughout. Besides, the “Post-emergence efficacy against GLXMA in %” value in data set [5] came to 10%.
